This is an account of results in paper PMC9385671 (Nature Communications, 2022).

Values joined by “and” are separate entries in the source; they are usually repeats but may differ in a detail not shown here. Equal values may be shown once. Read-outs that look alike come from different tables or passages of the source.

A short description of series [1]: Side-chain acidity: pKa by 1H NMR titration of free amino acids. In kind it is physicochemical. As to conditions: for pKa: aqueous KH2PO4 solution titrated with sodium hydroxide; for pKa of the phenolic side-chain: experimental error ±0.15. The method, then: 10–20 mg of an amino acid, 50 mg of KH2PO4 was dissolved in 15 ml of water and titrated by sodium hydroxide solution to distinct pH values. 500 μl were taken to NMR tubes, 50 μl deuterium oxidewas added and ^1H NMR spectra were measured using W5 pulse tray water suppression at 500 MHz frequency. The chemical shifts were plotted against pH and analyzed using Henderson-Hasselbalch equation to deliver the pKa values. Experimental error ±0.15.

The target in series [2] is T1, MjTyrRS variants (Methanocaldococcus jannaschii, UniProt Q57834, D158A/F108N/H70G/L162C/L65E/Y32V).
T1 construct: expressed in transfected cells
T1 sequence (Q57834 whole entry Y32V/L65E/H70G/F108N/D158A/L162C): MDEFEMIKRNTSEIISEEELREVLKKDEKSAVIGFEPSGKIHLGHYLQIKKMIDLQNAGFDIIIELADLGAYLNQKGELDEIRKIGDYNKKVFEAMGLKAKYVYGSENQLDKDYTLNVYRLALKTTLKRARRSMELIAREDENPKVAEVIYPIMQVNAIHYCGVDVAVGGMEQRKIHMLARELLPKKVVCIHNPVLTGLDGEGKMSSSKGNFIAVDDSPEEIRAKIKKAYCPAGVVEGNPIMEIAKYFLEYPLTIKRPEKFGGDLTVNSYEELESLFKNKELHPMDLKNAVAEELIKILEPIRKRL
Kind of series: Intact cell fluorescence assay of HYs incorporation into SUMO-sfGFP. In kind it is cell-based. Conditions: Synthetase C64RS. On the procedure: (§1) The intact cell fluorescence assay was performed to approximately compare the Br2Y and Cl2Y incorporation efficiency of screened MjTyrRSs as well as to estimate their promiscuity against other Tyr analogues. Since the gene expression of SUMO-sfGFP was driven by T5 promoter on the one round positive selection plasmid, SUMO-sfGFP can be directly expressed in DH10b strain. […] Next day, an overnight culture was inoculated in a well at a ratio of 1:100 containing 300 μL TB medium supplemented with 50 μg/mL Kan,100 μg/mL Amp, 0.5 mM IPTG as well as 1 mM HYs while the corresponding control lacked the HYs. Cells were grown in 96 well plates (Ibidi) with orbital shaking (2 mm amplitude) for 24 h at 37 °C covered with a gas-permeable foil (Sigma Aldrich, Taufkirchen, Germany). […] After 24 h incubation, the optimal density and fluorescence was measured via top reading after the gas-permeable foil was removed. Each measurement was done in triplicate.

The target in series [3] is T2, MjTyrRS variants (Methanocaldococcus jannaschii, UniProt Q57834, D158A/F108Q/H70G/L162N/L65E/Q109C/Y32G).
T2 construct: expressed in transfected cells
T2 sequence (Q57834 whole entry Y32G/L65E/H70G/F108Q/Q109C/D158A/L162N): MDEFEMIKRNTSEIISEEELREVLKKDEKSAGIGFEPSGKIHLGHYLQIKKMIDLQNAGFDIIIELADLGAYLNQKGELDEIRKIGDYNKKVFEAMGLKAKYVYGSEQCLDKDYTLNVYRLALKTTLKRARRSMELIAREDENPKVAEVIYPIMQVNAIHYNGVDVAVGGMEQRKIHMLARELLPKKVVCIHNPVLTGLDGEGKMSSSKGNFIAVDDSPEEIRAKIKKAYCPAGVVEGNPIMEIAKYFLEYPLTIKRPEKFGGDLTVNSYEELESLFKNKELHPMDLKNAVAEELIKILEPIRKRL
Described as above. In kind it is cell-based. As to conditions: for Fluorescence Instensity: Synthetase B48RS; for Incorporation efficiency (sfGFP fluorescence) versus control without HYs additions: mutant B48RS, 1 mM HY, E. coli DH10b. On the procedure:
as §1

Series [4] relates to MjTyrRS variants. Described as above. In kind it is cell-based, Methanocaldococcus jannaschii. The method, then: as §1
The target of series [5] is FtsZ-YFP-mts (Escherichia coli, UniProt P0A9A6). Also noted: made in house; host or cells: E. coli BL21(DE3) for the wild type. As to conditions: intensity line profile. On the procedure:
1,2-dioleoyl-sn-glycero-3-phosphocholine (DOPC):1,2-dioleoyl-sn-glycero-3-phospho-(1’-rac-glycerol) (DOPG), 70:30 mol % mixture, was dissolved in chloroform in a quartz container, then dehumidified under a gas nitrogen stream. Chloroform traces were further removed through desiccation (1 h). Afterwards, the lipid film was hydrated to a final concentration of 4 mg/ml in supported lipid bilayers (SLB) buffer (50 mM Tris-HCl at pH 7.5, 150 mM KCl), and incubated at 37 °C for 30 min. The lipid film was then completely resuspended by vortexing rigorously to obtain multilamellar vesicles of different sizes. This mixture was then placed in a bath sonicator where shear forces help to reduce the size of the vesicles, giving rise to small unilamellar vesicles (SUVs). The SUV dispersion were stored at −20 °C as 20 µl aliquots.
Glass coverslips (1.5#, 24 x 24 mm) were cleaned by piranha solution overnight, followed by extensive washing with milliQ H2O. Then glass coverslips were blown dry with compressed air. The reaction chamber was prepared by attaching a plastic ring on a cleaned glass coverslip using ultraviolet glue (Thorlabs No. 68). For supported lipid bilayer formation, the SUV dispersion was diluted in SLB buffer to 0.5 mg/ml, of which 75 µl was added to the reaction chamber. Adding CaCl2 to a final concentration of 3 mM induced fusion of the vesicles and the formation of a lipid bilayer on coversilde. After 20 min of incubation at 37 °C, the sample was rinsed with 2 ml pre-warmed SLB buffer.
Polymerization was induced by adding 4 mM GTP.
The UltimateFocus feature of DeltaVision Elite maintains the focus plane constant in time. […] Fluorescence imaging was performed using a standard FITC filter set. Images were acquired with a PCO sCMOS 5.5 camera (PCO, Germany) controlled by the softWoRx Software (GE Healthcare Life Sciences, Germany). For time-lapse experiments, images were acquired every 3 s with a 0.05 s exposure time and light illumination shuttered between acquisitions.

Where [6] appears, read: experimental error ±0.15, read-out: Ammonium pKa.
Setting [7] is: experimental error ±0.15, read-out: pKa of the phenolic side-chain.

Sequence of FtsZ-YFP-mts (P0A9A6 1-366): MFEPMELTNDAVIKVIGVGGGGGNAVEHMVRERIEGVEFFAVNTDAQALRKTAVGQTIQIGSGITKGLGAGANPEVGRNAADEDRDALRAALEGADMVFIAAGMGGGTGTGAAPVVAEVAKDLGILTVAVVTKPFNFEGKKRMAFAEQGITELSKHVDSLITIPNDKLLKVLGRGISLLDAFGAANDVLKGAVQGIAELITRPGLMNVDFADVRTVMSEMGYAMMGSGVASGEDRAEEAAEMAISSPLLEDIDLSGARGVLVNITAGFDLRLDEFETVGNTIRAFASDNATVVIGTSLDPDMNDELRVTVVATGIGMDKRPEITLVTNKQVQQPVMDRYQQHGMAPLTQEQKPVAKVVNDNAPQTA

For the compound `N[C@@H](Cc1ccc(O)c(Br)c1)C(=O)O` [BrY, 3-bromo-L-tyrosine], the pKa in series [1] (setting [6]) was 9.52; in series [1] (setting [7]), 8.3. In addition, the “pKa of the phenolic side-chain” value in series [1] is on record as 8.29. For the same compound, the “Fluorescence Instensity” value was 0.3329 a.u. and 0.3931 a.u. and 0.2701 a.u in series [2]; 0.5063 a.u. and 0.6051 a.u. and 0.4087 a.u in series [3]; 0.06278 a.u. and 0.07689 a.u. and 0.04597 a.u in series [4] (Synthetase B4RS); 0.408 a.u. and 0.4614 a.u. and 0.3514 a.u in series [4] (Synthetase B12RS); 0.2591 a.u. and 0.2929 a.u. and 0.2246 a.u in series [4] (Synthetase B37RS); 0.7502 a.u. and 0.845 a.u. and 0.6301 a.u in series [4] (Synthetase C5RS). For the same compound, the “Fluorescence Instensity” value was 0.7918 a.u. and 0.9328 a.u. and 0.6597 a.u in series [4] (Synthetase C45RS); 0.2377 a.u. and 0.2625 a.u. and 0.2104 a.u in series [4] (Synthetase C61RS). Moreover, the “Incorporation efficiency (sfGFP fluorescence) versus control without HYs additions” value in series [3] is “more than 100 fold”.

Turning to `N[C@@H](Cc1cc(Cl)c(O)c(Cl)c1)C(=O)O` [Cl2Y, 3,5-dichloro-L-tyrosine], the values for the pKa in series [1] (setting [6]) and in series [1] (setting [7]) were 9.4 and 6.5, respectively. In addition, in series [1], the “pKa of the phenolic side-chain” value stood at 6.52. For the same compound, the “Fluorescence Instensity” value in series [2] was 0.3285 a.u. and 0.3594 a.u. and 0.2924 a.u; in series [3], 0.5689 a.u. and 0.6362 a.u. and 0.4688 a.u; in series [4] (Synthetase B4RS), 0.07529 a.u. and 0.09709 a.u. and 0.05112 a.u; in series [4] (Synthetase B12RS), 0.3851 a.u. and 0.4746 a.u. and 0.2926 a.u; in series [4] (Synthetase B37RS) it was 0.3145 a.u. and 0.3721 a.u. and 0.2575 a.u; in series [4] (Synthetase B39RS), 0.2554 a.u. and 0.3069 a.u. and 0.2029 a.u. In addition, the “Fluorescence Instensity” value is 0.7019 a.u. and 0.7995 a.u. and 0.5915 a.u in series [4] (Synthetase C5RS); 0.8209 a.u. and 0.9248 a.u. and 0.7159 a.u in series [4] (Synthetase C45RS); 0.5873 a.u. and 0.6501 a.u. and 0.5303 a.u in series [4] (Synthetase C61RS). Besides, the “Incorporation efficiency (sfGFP fluorescence) versus control without HYs additions” value in series [3] is listed as “more than 100 fold”.

As to `N[C@@H](Cc1ccc(O)c(Cl)c1)C(=O)O` [ClY, 3-chloro-L-tyrosine], the pKa in series [1] (setting [6]) was 9.5; in series [1] (setting [7]), 8.3. Besides, the “pKa of the phenolic side-chain” value in series [1] stood at 8.31. For the same compound, the “Fluorescence Instensity” value is 0.3514 a.u. and 0.3883 a.u. and 0.3147 a.u in series [2]; 0.5472 a.u. and 0.654 a.u. and 0.4364 a.u in series [3]; 0.3856 a.u. and 0.4561 a.u. and 0.2986 a.u in series [4] (Synthetase B12RS); 0.2734 a.u. and 0.2944 a.u. and 0.2525 a.u in series [4] (Synthetase B37RS); 0.8727 a.u. and 1 a.u. and 0.7434 a.u in series [4] (Synthetase C5RS); 0.8577 a.u. and 0.9724 a.u. and 0.7484 a.u in series [4] (Synthetase C45RS). Further, the “Fluorescence Instensity” value in series [4] (Synthetase C61RS) was 0.5458 a.u. and 0.6071 a.u. and 0.5015 a.u.

Consider `N[C@@H](Cc1ccc(O)cc1)C(=O)O` [Y, tyrosine], for which the “Fluorescence Instensity” value in series [2] was 0.01243 a.u. and 0.01248 a.u. and 0.01236 a.u; in series [3] it was 0.00506 a.u. and 0.00513 a.u. and 0.00494 a.u; in series [4] (Synthetase B4RS), 0.06037 a.u. and 0.07682 a.u. and 0.04915 a.u; in series [4] (Synthetase B37RS), 0.1466 a.u. and 0.1756 a.u. and 0.1118 a.u; in series [4] (Synthetase B39RS), 0.1833 a.u. and 0.2205 a.u. and 0.1319 a.u; in series [4] (Synthetase C5RS) it was 0.01571 a.u. and 0.01574 a.u. and 0.0156 a.u. Moreover, the Gray value in series [5] (Distance(um) 5.15845) worked out at 0.2436; in series [5] (Distance(um) 5.17427), 0.2678; in series [5] (Distance(um) 5.1901) it was 0.2809; in series [5] (Distance(um) 5.20592), 0.2851; in series [5] (Distance(um) 5.22175), 0.3113; in series [5] (Distance(um) 5.23757) it was 0.3327. For the same compound, the Gray value in series [5] (Distance(um) 5.25339) is given as 0.3531; in series [5] (Distance(um) 5.26922), 0.3835; in series [5] (Distance(um) 5.28504), 0.428; in series [5] (Distance(um) 5.30086), 0.443; in series [5] (Distance(um) 5.31669), 0.4411; in series [5] (Distance(um) 5.33251), 0.4633. The Gray value was found to be 0.4809 in series [5] (Distance(um) 5.34833); 0.4782 in series [5] (Distance(um) 5.36416); 0.498 in series [5] (Distance(um) 5.37998); 0.5435 in series [5] (Distance(um) 5.3958); 0.5554 in series [5] (Distance(um) 5.41163); 0.5565 in series [5] (Distance(um) 5.42745). Moreover, the Gray value in series [5] (Distance(um) 5.44327) worked out at 0.5888; in series [5] (Distance(um) 5.4591), 0.6168; in series [5] (Distance(um) 5.47492) it was 0.6475; in series [5] (Distance(um) 5.49074), 0.6743; in series [5] (Distance(um) 5.50657), 0.698; in series [5] (Distance(um) 5.52239), 0.7626. Moreover, the Gray value in series [5] (Distance(um) 5.53821) is 0.7361; in series [5] (Distance(um) 5.55404) it was 0.7938; in series [5] (Distance(um) 5.56986) it was 0.8828; in series [5] (Distance(um) 5.58569), 0.899; in series [5] (Distance(um) 5.60151), 0.8493; in series [5] (Distance(um) 5.61733), 0.8767. In addition, the Gray value in series [5] (Distance(um) 5.63316) turned out to be 0.9446; in series [5] (Distance(um) 5.64898), 1; in series [5] (Distance(um) 5.6648) it was 0.9652; in series [5] (Distance(um) 5.68063), 0.9584; in series [5] (Distance(um) 5.69645), 0.9755; in series [5] (Distance(um) 5.71227), 0.9816. For the same compound, the Gray value is listed as 0.9099 in series [5] (Distance(um) 5.7281); 0.8492 in series [5] (Distance(um) 5.74392); 0.8638 in series [5] (Distance(um) 5.75974); 0.7917 in series [5] (Distance(um) 5.77557); 0.7498 in series [5] (Distance(um) 5.79139); 0.6513 in series [5] (Distance(um) 5.80721).
